Data: BindingDB's records for doi:10.1016/S0960-894X(01)80179-7 (1994)

Target: Kappa-type opioid receptor (Cavia porcellus, UniProt P41144)
Test: ChEBML_92409
From the text: Affinity at K opioid receptor on membranes prepared from guinea pig cerebellum by [3H]- 69593 displacement.

Chain of Kappa-type opioid receptor (P41144 whole entry): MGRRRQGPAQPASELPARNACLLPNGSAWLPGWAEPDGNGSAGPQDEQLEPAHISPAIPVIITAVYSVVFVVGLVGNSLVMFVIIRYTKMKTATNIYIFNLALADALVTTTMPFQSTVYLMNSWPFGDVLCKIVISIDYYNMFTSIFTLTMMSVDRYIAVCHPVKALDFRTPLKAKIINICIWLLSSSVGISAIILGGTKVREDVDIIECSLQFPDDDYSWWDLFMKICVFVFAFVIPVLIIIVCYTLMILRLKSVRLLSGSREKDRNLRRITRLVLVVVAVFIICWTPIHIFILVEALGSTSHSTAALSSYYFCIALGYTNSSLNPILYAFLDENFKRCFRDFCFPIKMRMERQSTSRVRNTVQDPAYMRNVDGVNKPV

Structure (SMILES) | Ki [nM]
Cc1ccc(C(C(=O)N(C)[C@H](CN2CC[C@H](O)C2)c2ccccc2)c2ccc(C)cc2)cc1 | 20
CN(C(=O)C1c2ccccc2CCc2ccccc21)[C@H](CN1CC[C@H](O)C1)c1ccccc1 | 20
CN(C(=O)C(c1ccccc1)c1ccccc1)[C@H](CN1CC[C@H](O)C1)c1cccc([N+](=O)[O-])c1 | 20
